The text below walks through data of PMC11643494, “Structure–Activity Relationship Studies in a Series of 2-Aryloxy-N-(pyrimidin-5-yl)acetamide Inhibitors of SLACK Potassium Channels” (Molecules, 2024).

One data set has as its target T1, WT human SLACK (Homo sapiens, UniProt Q5JUK3).
T1 construct: host or cells: CHO-K1
T1 sequence (Q5JUK3 1-1235 isoform Q5JUK3-3): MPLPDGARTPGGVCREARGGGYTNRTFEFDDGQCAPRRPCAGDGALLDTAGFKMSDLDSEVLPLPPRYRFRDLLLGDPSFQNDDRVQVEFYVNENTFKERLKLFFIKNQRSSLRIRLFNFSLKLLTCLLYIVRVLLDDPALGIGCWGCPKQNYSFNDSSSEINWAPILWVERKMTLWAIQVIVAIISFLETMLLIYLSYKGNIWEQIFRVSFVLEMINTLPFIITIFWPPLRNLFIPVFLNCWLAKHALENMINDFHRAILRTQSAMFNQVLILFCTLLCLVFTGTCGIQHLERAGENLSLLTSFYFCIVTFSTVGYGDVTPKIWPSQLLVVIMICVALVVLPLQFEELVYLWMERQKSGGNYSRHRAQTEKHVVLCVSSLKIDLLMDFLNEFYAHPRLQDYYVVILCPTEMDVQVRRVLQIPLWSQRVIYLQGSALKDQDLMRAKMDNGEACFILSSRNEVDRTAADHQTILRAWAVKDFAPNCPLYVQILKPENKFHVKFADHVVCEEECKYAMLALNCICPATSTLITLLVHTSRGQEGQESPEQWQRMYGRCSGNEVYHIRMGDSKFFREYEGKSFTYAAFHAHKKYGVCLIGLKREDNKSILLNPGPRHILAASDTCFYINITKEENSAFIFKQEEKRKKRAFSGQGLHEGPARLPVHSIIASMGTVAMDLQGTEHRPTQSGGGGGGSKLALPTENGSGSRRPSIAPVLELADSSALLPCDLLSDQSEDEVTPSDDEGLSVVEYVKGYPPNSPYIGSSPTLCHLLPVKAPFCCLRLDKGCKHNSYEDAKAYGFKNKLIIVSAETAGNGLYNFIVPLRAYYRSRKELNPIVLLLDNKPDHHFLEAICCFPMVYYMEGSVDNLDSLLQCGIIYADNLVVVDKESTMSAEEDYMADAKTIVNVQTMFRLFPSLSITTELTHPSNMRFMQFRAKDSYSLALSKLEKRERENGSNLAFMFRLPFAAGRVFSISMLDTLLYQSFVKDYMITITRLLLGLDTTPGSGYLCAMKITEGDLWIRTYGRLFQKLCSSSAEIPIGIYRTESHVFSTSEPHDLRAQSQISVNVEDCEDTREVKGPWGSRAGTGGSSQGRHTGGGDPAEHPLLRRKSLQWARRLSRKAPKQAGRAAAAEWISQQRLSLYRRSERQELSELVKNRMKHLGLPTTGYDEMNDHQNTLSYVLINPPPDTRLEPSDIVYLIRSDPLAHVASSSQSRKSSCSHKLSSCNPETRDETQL
The data set can be described thus: Whole-cell automated patch clamp (APC) in CHO-K1 cells stably expressing WT human SLACK. Type of data set: cell-based. The conditions noted are these: for pIC50 / WT SLACK inhibition, result in words: APC; for pIC50: CHO-K1 cells stably expressing WT human SLACK, averages (n ≥ 3); for SLACK Imax: maximum inhibition at 30 µM test compound standardized to VU0606170 (set at 100%), WT human SLACK; for WT SLACK inhibition, result in words: concentrations 0.125 to 30 µM; for Fold less potent than hit 10 (SLACK inhibition): ratio of WT SLACK APC IC50 to hit 10. As to the method:
Using concentrations ranging from 0.125 to 30 µM in half-log steps, a concentration–response relationship was generated for each new analog using our APC assay in CHO-K1 cells stably expressing WT SLACK. A minimum of three cells, i.e., replicates, were collected per concentration for each analog.
Automated patch clamp recording was performed with a SyncroPatch 768 PE system (Nanion, Munich, Germany) as previously described. Whole-cell recordings were performed at room temperature. Cells were harvested by first washing with PBS without Mg^2+ or Ca^2+ (Gibco, Billings, MT, USA) to remove cell culture medium, followed by dissociation with TryPLE (Gibco, Billings, MT, USA). Cells were then resuspended and diluted to 200,000 cells/mL in external solution. External solution contained 105 mM NaCl, 4 mM KCl, 1 mM MgCl2, 5 mM CaCl2, 10 mM HEPES, 40 mM N-Methyl-D-glucamine chloride, titrated to pH 7.4 with NaOH and osmolarity of 300 mOsm/kg; internal solution contained 70 mM NaCl, 70 mM KF, 10 mM KCl, 5 mM EGTA, 5mM HEPES, titrated to a pH 7.2 with KOH and osmolarity of 295 mOsm/kg.
The APC protocol was set as following: Cells were held at […] −80 mV for 100 ms, then a ramp protocol was performed from −100 mV to 80 mV at 0.4 mV/ms, hold the cell at −80 mV for another 100 ms, then steps were performed at −20 mV, 0 mV, +20 mV, +40 mV, and +60 mV for 100 ms of each step. Whole-cell currents were measured at 0 mV and normalized to current after external buffer addition.

The subject of data set [1] is WT SLACK. Further details: method as in PMID 32408169. The following applies: whole-cell patch clamp electrophysiology; read-out: IC50 versus WT SLACK; cited from earlier work. On the technique in general: Patch clamp records ionic current or voltage across a cell membrane.
The next data set relates to hERG (Kv11.1) channel. More on the design: method as in PMID 32408169. The conditions noted are these: 10 µM; cited from earlier work.
Another data set deals with human WT SLACK. More on the design: method as in PMID 33859800. The conditions noted are these: APC; read-out: IC50 versus human WT SLACK; cited from earlier work.
The test system of a further data set is SLACK mutant G288S. Further details: method as in PMID 33859800. The conditions noted are these: APC; read-out: IC50 versus SLACK mutant G288S; cited from earlier work.
For another data set, the system named is SLACK mutant F364L. Further details: method as in PMID 33859800. The following applies: APC; read-out: IC50 versus SLACK mutant F364L; cited from earlier work.
On the set-up of data set [2]: method as in PMID 33859800. The following applies: mice; cited from earlier work.
The next data set relates to Kcnt1^L/L mice. Further details: method as in PMID 33859800. The following applies: cited from earlier work.
The next data set concerns SLACK. More on the design: method as in earlier work. The following applies: patent application, no specific values reported; cited from earlier work.
Data set [3] relates to WT SLACK. The following applies: cited from earlier work.
Another data set has as its system hERG. The following applies: Tl+-flux, cited from earlier work.
Data set [4] concerns co-cultured cortical neurons and glial cells. Further details: method as in PMID 33143429. The conditions noted are these: cited from earlier work.
Another data set deals with A934T SLACK. The conditions noted are these: cited from earlier work.
The next data set concerns G288S SLACK. More on the design: method as in PMID 38893312. The following applies: whole-cell APC; read-out: IC50 versus G288S SLACK; cited from earlier work.
The mark [5] stands for this setting: whole-cell patch clamp electrophysiology, read-out: IC50 versus WT SLACK.

pIC50: −log10 of the molar value. Read-outs that look alike come from different tables or passages of the source.

In general, pIC50 refers to −log10 of the IC50, conventionally taken in molar units. At WT human SLACK, `CC(C)(Oc1ccc(S(F)(F)(F)(F)F)cc1)C(=O)Nc1cnc(Oc2ccccc2F)nc1` [Analog 62] showed a pIC50 of 5.39.
For `CC(C)(Oc1ccc(Cl)cc1)C(=O)Nc1cnc(Sc2ccccc2F)nc1` [Analog 63], at WT human SLACK, the pIC50 was 6.05 and the “SLACK Imax” value is given as 101%.
For the molecule `CC(C)(Oc1ccc(Cl)cc1)C(=O)Nc1cnc(Nc2ccccc2F)nc1` [Analog 64], at WT human SLACK, the “WT SLACK inhibition, result in words” value was “not tolerated”.
Consider `CN(c1ncc(NC(=O)C(C)(C)Oc2ccc(Cl)cc2)cn1)c1ccccc1F` [Analog 65], for which the pIC50 against WT human SLACK is 5.68.
Take `CN(c1ccc(S(C)(=O)=O)cc1)c1ncc(NC(=O)C(C)(C)Oc2ccc(Cl)cc2)cn1` [Analog 67]: at WT human SLACK, the pIC50 was 5.85 and the “SLACK Imax” value is listed as 101%.
On to `CC(C)(Sc1ccc(Cl)cc1)C(=O)Nc1cnc(Oc2ccccc2F)nc1` [Analog 68], for which, at WT human SLACK, the negative-log IC50 (pIC50) was 5.39 and the “Fold less potent than hit 10 (SLACK inhibition)” value is on record as “approximately 3 fold”.
With `CC(C)(Nc1ccc(Cl)cc1)C(=O)Nc1cnc(Oc2ccccc2F)nc1` [Analog 69], at WT human SLACK, the negative-log IC50 (pIC50) is 5.57 and the “Fold less potent than hit 10 (SLACK inhibition)” value was approximately 2 fold.
In the case of `CC(C)(Cc1ccc(Cl)cc1)C(=O)Nc1cnc(Oc2ccccc2F)nc1` [Analog 73], on WT human SLACK, the pIC50 is 5.14 and the “Fold less potent than hit 10 (SLACK inhibition)” value amounted to 5 fold.
With `O=C(CCc1ccc(Cl)cc1)Nc1cnc(Oc2ccccc2F)nc1` [Analog 74], on WT human SLACK, the pIC50 was 5.29 and the “SLACK Imax” value came out at 102%.
Regarding `O=C(COc1ccc(Cl)cc1)Nc1cnc(Oc2ccccc2F)nc1` [Analog 75], the “WT SLACK inhibition, result in words” value on WT human SLACK was “inactive”.
At WT human SLACK, `O=C(Nc1cnc(Oc2ccccc2F)nc1)C(F)(F)Oc1ccc(Cl)cc1` [Analog 79] had a pIC50 of 5.68.
For the molecule `CNCc1ccc(Cl)cc1` [Analog 80], the “WT SLACK inhibition, result in words” value on WT human SLACK is reported as “only a weak inhibitor”.
As to `CN(Cc1ccc(Cl)cc1)C(=O)Nc1cnc(Oc2ccccc2F)nc1` [Analog 82], on WT human SLACK, the pIC50 was less than 5.00 and the “SLACK Imax” value came out at 79%.
Consider `CC(C)(Oc1ccc(Cl)cc1)C(=O)Nc1ccc(Oc2ccccc2F)nc1` [Analog 86], for which, at WT human SLACK, the negative-log IC50 (pIC50) was 5.51 and the “Fold less potent than hit 10 (SLACK inhibition)” value is approximately 2 fold.
`CC(C)(Oc1ccc(Cl)cc1)C(=O)Nc1cnc(Oc2ccccc2F)c(C#N)c1` [Analog 87] gave a pIC50 against WT human SLACK of 5.74.
On to `CC(C)(Oc1ccc(Cl)cc1)C(=O)Nc1ccc(Oc2ccccc2F)cc1` [Analog 88], for which, on WT human SLACK, the negative logarithm of the IC50 (pIC50) is 5.31, the “SLACK Imax” value worked out at 92% and the “Fold less potent than hit 10 (SLACK inhibition)” value is given as 3.5 fold. Further, at WT human SLACK (WT SLACK APC IC50), the “Fold less active than pyridine 86” value stood at 1.6 fold.
As to `CC(C)(Oc1ccc(Cl)cc1)C(=O)Nc1ccc(Oc2ccccc2F)cn1` [Analog 89], on WT human SLACK, the negative logarithm of the IC50 (pIC50) is less than 5.00; the “WT SLACK inhibition, result in words” value is on record as “only weak inhibitors”; the “SLACK Imax” value is 52%.
As to `CC(C)(Oc1ccc(Cl)cc1)C(=O)Nc1cnc(Oc2ccccc2F)cn1` [Analog 90], at WT human SLACK, the negative logarithm of the IC50 (pIC50) was less than 5.00; the “WT SLACK inhibition, result in words” value was “only weak inhibitors”; the “SLACK Imax” value amounted to 50%.
As for `Cc1cccc(CC(=O)Nc2cnn(-c3cccc(C(=O)NCc4ccccc4-n4cncn4)c3)c2)c1` [Compound 1], the negative logarithm of the IC50 (pIC50) with WT SLACK [1] is 5.49. The “hERG (Kv11.1) channel blockade” value in the data set with hERG (Kv11.1) channel is “almost completely blocked the channel”.
`O=C(Nc1cccc(C(F)(F)F)c1)c1ccc2nc(N3C(=O)c4ccccc4C3=O)sc2c1` [Compound 2]: in the data set on WT SLACK [1], the negative logarithm of the IC50 (pIC50) was 5.52. In the data set with hERG (Kv11.1) channel, the “hERG (Kv11.1) channel blockade” value was 10–20%.
`O=C(Nc1cccc(C(F)(F)F)c1)c1ccc(CSc2nnnn2-c2ccccc2)cc1` [Compound 3]: in the data set on WT SLACK [1], the pIC50 was 5.80. Moreover, in the data set with hERG (Kv11.1) channel, the “hERG (Kv11.1) channel blockade” value was 45%.
Usually clearance stands for the rate of elimination divided by the concentration. Consider `C[C@H](NC(=O)c1cc(C(F)(F)F)nn1C)c1nc(-c2ccnc(C(F)(F)F)c2)no1` [Compound 4], for which the pIC50 in the data set on human WT SLACK was […]; in the data set with SLACK mutant G288S, 6.66; with SLACK mutant F364L it was 5.74. Moreover, in data set [2], the bioavailability result was “complete bioavailability”. Moreover, in data set [2], the clearance is 2.0 mL/min/kg. In addition, the anticonvulsant effects entry with Kcnt1^L/L mice was “anticonvulsant effects were observed”.
In the case of `O=C(N[C@@H]1CCc2cc(Cl)ccc21)c1ccc(S(=O)(=O)N2CCCC2)s1` [Compound 5], in the data set with SLACK, the negative-log IC50 (pIC50) was more than 6.00 and the “SLACK IC50” value is “less than one micromolar”.
Consider `COc1ccc(Cl)cc1NC(=O)CN1CCN(S(=O)(=O)N2CCC(C)CC2)CC1` [Compound 6], for which the pIC50 is 5.77 in the data set on WT SLACK [3] (setting [5]) and less than 5.00 in the data set with hERG. Further, the “frequency of calcium (Ca2+) oscillations, result in words” value in [4] is given as “inhibiting the frequency of calcium (Ca^2+) oscillations”.
Take `Cc1ccc2cccc(S(=O)(=O)N3CC(c4nc(-c5ccc(F)cc5)no4)C3)c2n1` [Compound 7]: the negative logarithm of the IC50 (pIC50) in the data set with WT SLACK [3] (whole-cell APC, read-out: APC IC50 versus WT SLACK) is 6.49. Besides, the “hERG activity, result in words” value in the data set with hERG (10 µM) is “inactive”. In addition, the “A934T SLACK inhibition, result in words” value in the data set on A934T SLACK is “potent inhibitor”.
For the molecule `CCCCN(Cc1ccc(F)cc1)c1nc2c(c(=O)n(Cc3cccc(OC)c3)c(=O)n2C)n1C` [Compound 8], the negative-log IC50 (pIC50) in the data set with WT SLACK [3] (setting [5]) was 6.15; with A934T SLACK (whole-cell APC, read-out: IC50 versus A934T SLACK) it was 6.23; in the data set with G288S SLACK it was 6.15.
